Laboratory results reported in US6620839B2, “1,3-disubstituted and 1,3,3-trisubstituted pyrrolidines as histamine-3 receptor ligands and their therapeutic applications” (Abbott Laboratories, priority 2000, dated 2003).

Biological target: T1, histamine-3 receptor (Rattus norvegicus, UniProt Q9QYN8)
T1 construct: from tissue; host or cells: male Sprague-Dawley rat brain cortex membranes
Assay: Histamine-3 receptor binding, (3H)-N-α-methylhistamine displacement in rat cortical membranes
Details: male Sprague-Dawley rat brain cortical membranes; (3H)-N-α-methylhistamine ~0.6 nM; 30 minutes at 25° C.; Cheng-Prusoff
Method: Briefly, male Sprague-Dawley rat brain cortices were homogenized (1 g tissue/10 mL buffer) in 50 mM Tris-HCl/5 mM EDTA containing protease inhibitor cocktail (Calbiochem) using a polytron set at 20,500 rpm. Homogenates were centrifuged for 20 minutes at 40,000×g. The supernatant was decanted, and pellets were weighed. The pellet was resuspended by polytron homogenization in 40 mL 50 mM Tris-HCl/5 mM EDTA with protease inhibitors and centrifuged for 20 minutes at 40,000×g. […] Test compounds were dissolved in DMSO to provide 20 mM solution, serially diluted and then added to the incubation mixtures prior to initiating the incubation assay by addition of the membranes. Thioperamide (3 μM) was used to determine nonspecific binding. Binding incubations were conducted for 30 minutes at 25° C. and terminated by addition of 2 mL of ice cold 50 mM Tris-HCl (pH 7.7) and filtration through 0.3% polyethylenimine-soaked Unifilter plates (Packard). These filters were washed 4 additional times with 2 mL of ice-cold 50 mM Tris-HCl and dried for 1 hour. Radioactivity was determined using liquid scintillation counting techniques. Results were analyzed by Hill transformation and Ki values were determined using the Cheng-Prusoff equation.

T1 sequence (Q9QYN8 whole entry): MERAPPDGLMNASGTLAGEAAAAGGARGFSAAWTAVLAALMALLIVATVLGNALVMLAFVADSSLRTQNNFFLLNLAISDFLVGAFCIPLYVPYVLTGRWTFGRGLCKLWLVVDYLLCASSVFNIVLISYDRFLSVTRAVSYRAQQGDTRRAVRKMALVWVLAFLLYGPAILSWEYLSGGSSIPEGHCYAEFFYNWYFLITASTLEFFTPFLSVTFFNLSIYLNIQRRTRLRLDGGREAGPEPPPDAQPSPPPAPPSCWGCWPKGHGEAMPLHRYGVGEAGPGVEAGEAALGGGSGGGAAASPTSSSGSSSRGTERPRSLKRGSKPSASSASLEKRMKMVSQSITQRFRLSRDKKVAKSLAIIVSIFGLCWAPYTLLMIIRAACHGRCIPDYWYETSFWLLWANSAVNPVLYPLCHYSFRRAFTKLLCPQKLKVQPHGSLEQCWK

Row | SMILES | Ki [nM]
1 | N#Cc1ccc(-c2ccc(OCCCN3CC[C@@H](NS(=O)(=O)c4ccccc4OC(F)(F)F)C3)cc2)cc1 [Example 45] | 127
2 | N#Cc1ccc(-c2ccc(OCCCN3CC[C@@H](NS(=O)(=O)c4ccccc4C#N)C3)cc2)cc1 [Example 46, 2-cyano-N-((3R)-1-{3-[(4′-cyano[1,1′-biphenyl]-4-yl)oxy]propyl}pyrrolidinyl)benzenesulfonamide] | 103
3 | Cc1cccc(S(=O)(=O)N[C@@H]2CCN(CCCOc3ccc(-c4ccc(C#N)cc4)cc3)C2)c1 [Example 47] | 12
4 | N#Cc1ccc(-c2ccc(OCCCN3CC[C@@H](NS(=O)(=O)c4ccc(C(F)(F)F)cc4)C3)cc2)cc1 [Example 48] | 60
5 | N#Cc1ccc(-c2ccc(OCCCN3CC[C@@H](NS(=O)(=O)c4cccc(F)c4)C3)cc2)cc1 [Example 49] | 13
6 | N#Cc1ccc(-c2ccc(OCCCN3CC[C@@H](NS(=O)(=O)c4ccc(OC(F)(F)F)cc4)C3)cc2)cc1 [Example 50] | 60
7 | N#Cc1ccc(-c2ccc(OCCCN3CC[C@@H](NS(=O)(=O)c4ccc(F)cc4F)C3)cc2)cc1 [Example 51] | 9.3
8 | N#Cc1ccc(-c2ccc(OCCCN3CC[C@@H](NS(=O)(=O)c4ccc5ccncc5c4)C3)cc2)cc1 [Example 52] | 15
9 | CC(=O)Nc1ccc(S(=O)(=O)N[C@@H]2CCN(CCCOc3ccc(-c4ccc(C#N)cc4)cc3)C2)cc1Cl [Example 53, N-(2-chloro-4-{[((3R)-1-{3-[(4′-cyano[1,1′-biphenyl]-4-yl)oxy]propyl}pyrrolidinyl)amino]sulfonyl}phenyl)acetamide] | 3.9
10 | N#Cc1ccc(-c2ccc(OCCCN3CC[C@@H](NS(=O)(=O)c4ccc(Cl)c(Cl)c4)C3)cc2)cc1 [Example 54, 3,4-dichloro-N-((3R)-1-{3-[(4′-cyano[1,1′-biphenyl]-4-yl)oxy]propyl}pyrrolidinyl)benzenesulfonamide] | 98
11 | O=C(c1ccc(OCCCN2CC[C@@H](NS(=O)(=O)c3ccccc3)C2)cc1)C1CC1 [Example 55, N-((3R)-1-{3-[4-(cyclopropylcarbonyl)phenoxy]propyl}pyrrolidinyl)benzenesulfonamide] | 2.9
12 | O=C(c1ccc(OCCCN2CC[C@@H](NS(=O)(=O)c3ccc(Br)cc3)C2)cc1)C1CC1 [Example 56, 4-bromo-N-((3R)-1-{3-[4-(cyclopropylcarbonyl)phenoxy]propyl}pyrrolidinyl)benzenesulfonamide] | 4.7
13 | O=C(c1ccc(OCCCN2CC[C@@H](NS(=O)(=O)c3ccc(F)cc3)C2)cc1)C1CC1 [Example 57, N-((3R)-1-{3-[4-(cyclopropylcarbonyl)phenoxy]propyl}pyrrolidinyl)-4-fluorobenzenesulfonamide] | 3.6
14 | O=C(c1ccc(OCCCN2CC[C@@H](NS(=O)(=O)c3ccc(Cl)cc3)C2)cc1)C1CC1 [Example 58, 4-chloro-N-((3R)-1-{3-[4-(cyclopropylcarbonyl)phenoxy]propyl}pyrrolidinyl)benzenesulfonamide] | 3.9
15 | COc1ccc(S(=O)(=O)N[C@@H]2CCN(CCCOc3ccc(C(=O)C4CC4)cc3)C2)cc1 [Example 59, N-((3R)-1-{3-[4-(cyclopropylcarbonyl)phenoxy]propyl}pyrrolidinyl)-4-methoxybenzenesulfonamide] | 3
16 | CC(C)(C)c1ccc(S(=O)(=O)N[C@@H]2CCN(CCCOc3ccc(C(=O)C4CC4)cc3)C2)cc1 [Example 60, 4-tert-butyl-N-((3R)-1-{3-[4-(cyclopropylcarbonyl)phenoxy]propyl}pyrrolidinyl)benzenesulfonamide] | 5.2
17 | Cc1ccc(S(=O)(=O)N[C@@H]2CCN(CCCOc3ccc(C(=O)C4CC4)cc3)C2)cc1 [Example 61, N-((3R)-1-{3-[4-(cyclopropylcarbonyl)phenoxy]propyl}pyrrolidinyl)-4-methylbenzenesulfonamide] | 4.2
18 | O=C(c1ccc(OCCCN2CC[C@@H](NS(=O)(=O)c3cccc(C(F)(F)F)c3)C2)cc1)C1CC1 [Example 62, N-((3R)-1-{3-[4-(cyclopropylcarbonyl)phenoxy]propyl}pyrrolidinyl)-3-(trifluoromethyl)benzenesulfonamide] | 6.4

Row | SMILES | Ki [nM]
19 | COc1ccc(OC)c(S(=O)(=O)N[C@@H]2CCN(CCCOc3ccc(C(=O)C4CC4)cc3)C2)c1 [Example 63, N-((3R)-1-{3-[4-(cyclopropylcarbonyl)phenoxy]propyl}pyrrolidinyl)-2,5-dimethoxybenzenesulfonamide] | 12
20 | Cc1ccccc1S(=O)(=O)N[C@@H]1CCN(CCCOc2ccc(C(=O)C3CC3)cc2)C1 [Example 64, N-((3R)-1-{3-[4-(cyclopropylcarbonyl)phenoxy]propyl}pyrrolidinyl)-2-methylbenzenesulfonamide] | 11
21 | O=C(c1ccc(OCCCN2CC[C@@H](NS(=O)(=O)c3ccc(F)c(Cl)c3)C2)cc1)C1CC1 [Example 65, 3-chloro-N-((3R)-1-{3-[4-(cyclopropylcarbonyl)phenoxy]propyl}pyrrolidinyl)-4-fluorobenzenesulfonamide] | 5
22 | CCc1ccc(S(=O)(=O)N[C@@H]2CCN(CCCOc3ccc(C(=O)C4CC4)cc3)C2)cc1 [Example 66, N-((3R)-1-{3-[4-(cyclopropylcarbonyl)phenoxy]propyl}pyrrolidinyl)-4-ethylbenzenesulfonamide] | 4.6
23 | O=C(c1ccc(OCCCN2CC[C@@H](NS(=O)(=O)c3ccccc3F)C2)cc1)C1CC1 [Example 68, N-((3R)-1-{3-[4-(cyclopropylcarbonyl)phenoxy]propyl}pyrrolidinyl)-2-fluorobenzenesulfonamide] | 2.8
24 | O=C(c1ccc(OCCCN2CC[C@@H](NS(=O)(=O)c3cccc(Cl)c3)C2)cc1)C1CC1 [Example 70, 3-chloro-N-((3R)-1-{3-[4-(cyclopropylcarbonyl)phenoxy]propyl}pyrrolidinyl)benzenesulfonamide] | 3
25 | N#Cc1cccc(S(=O)(=O)N[C@@H]2CCN(CCCOc3ccc(C(=O)C4CC4)cc3)C2)c1 [Example 71, 3-cyano-N-((3R)-1-{3-[4-(cyclopropylcarbonyl)phenoxy]propyl}pyrrolidinyl)benzenesulfonamide] | 2.8
26 | CC(=O)c1ccc(OCCCN2CC[C@@H](NS(=O)(=O)c3cccc(F)c3)C2)cc1 [Example 72, N-{(3R)-1-[3-(4-acetylphenoxy)propyl]pyrrolidinyl}-3-fluorobenzenesulfonamide] | 7.9
27 | CC(=O)c1ccc(OCCCN2CC[C@@H](NS(=O)(=O)c3ccc(F)cc3F)C2)cc1 [Example 74, N-{(3R)-1-[3-(4-acetylphenoxy)propyl]pyrrolidinyl}-2,4-difluorobenzenesulfonamide] | 5.6
28 | CC(=O)c1ccc(OCCCN2CC[C@@H](NS(=O)(=O)c3cccc4cnccc34)C2)cc1 [Example 75, N-{(3R)-1-[3-(4-acetylphenoxy)propyl]pyrrolidinyl}-5-isoquinolinesulfonamide] | 19
29 | CC(=O)Nc1ccc(S(=O)(=O)N[C@@H]2CCN(CCCOc3ccc(C(C)=O)cc3)C2)cc1Cl [Example 76, N-{4-[({(3R)-1-[3-(4-acetylphenoxy)propyl]pyrrolidinyl}amino)sulfonyl]-2-chlorophenyl}acetamide] | 4.9
30 | CC(=O)c1ccc(OCCCN2CC[C@@H](NS(=O)(=O)c3ccc(Cl)c(Cl)c3)C2)cc1 [Example 77, N-{(3R)-1-[3-(4-acetylphenoxy)propyl]pyrrolidinyl}-3,4-dichlorobenzenesulfonamide] | 5.3
31 | CC(=O)c1ccc(OCCCN2CC[C@@H](NS(=O)(=O)c3cccn3-c3ncc(C(F)(F)F)cc3Cl)C2)cc1 [Example 78, N-{(3R)-1-[3-(4-acetylphenoxy)propyl]pyrrolidinyl}-1-[3-chloro-5-(trifluoromethyl)-2-pyridinyl]-1H-pyrrole-2-sulfonamide] | 8.7
32 | CC(=O)c1ccc(OCCCN2CC[C@@H](NS(=O)(=O)c3ccc(Oc4ncc(C(F)(F)F)cc4Cl)cc3)C2)cc1 [Example 79, N-{(3R)-1-[3-(4-acetylphenoxy)propyl]pyrrolidinyl}-4-{[3-chloro-5-(trifluoromethyl)-2-pyridinyl]oxy}benzenesulfonamide] | 7.9
33 | Cn1cnc(S(=O)(=O)N[C@@H]2CCN(CCCOc3ccc(C(=O)C4CC4)cc3)C2)c1 [Example 80, N-((3R)-1-{3-[4-(cyclopropylcarbonyl)phenoxy]propyl}pyrrolidinyl)-1-methyl-1H-imidazole-4-sulfonamide] | 10
34 | O=C(c1ccc(OCCCN2CC[C@@H](NS(=O)(=O)c3cccs3)C2)cc1)C1CC1 [Example 81, N-((3R)-1-{3-[4-(cyclopropylcarbonyl)phenoxy]propyl}pyrrolidinyl)-2-thiophenesulfonamide] | 5
35 | Cc1c(S(=O)(=O)N[C@@H]2CCN(CCCOc3ccc(C(=O)C4CC4)cc3)C2)sc2ccc(Cl)cc12 [Example 82, 5-chloro-N-((3R)-1-{3-[4-(cyclopropylcarbonyl)phenoxy]propyl}pyrrolidinyl)-3-methyl-1-benzothiophene-2-sulfonamide] | 21
36 | O=C(c1ccc(OCCCN2CC[C@@H](NS(=O)(=O)c3cc(C(F)(F)F)cc(C(F)(F)F)c3)C2)cc1)C1CC1 [Example 83, N-((3R)-1-{3-[4-(cyclopropylcarbonyl)phenoxy]propyl}pyrrolidinyl)-3,5-bis(trifluoromethyl)benzenesulfonamide] | 23
